Values quoted from earlier work as cited in article PMC12694011, “Update and ADMET Profile of the Latin American Natural Product Database: LANaPDB” (Molecular Informatics, 2025).

Experiments:
[1] = set-up: method as in PMID 19947605; settings: amphoteric drugs
[2] = test system: hERG channel

SMILES | paracellular transport (in words) [1] | hERG channel blocking (in words) [2]
Nc1nc(O)c2ncn(COC(CO)CO)c2n1 [ganciclovir] | undergo extensive paracellular transport | 
CN1C(C(=O)Nc2ccccn2)=C(O)c2ccccc2S1(=O)=O [piroxicam] | undergo extensive paracellular transport | 
OCCN1CCN(CCCN2c3ccccc3Sc3ccc(Cl)cc32)CC1 [perphenazine] |  | potent hERG channel blockers
O=c1[nH]c2ccccc2n1C1CCN(CCCC(c2ccc(F)cc2)c2ccc(F)cc2)CC1 [pimozide] |  | potent hERG channel blockers
CC1(C)S[C@@H]2[C@H](/N=C/N3CCCCCC3)C(=O)N2[C@H]1C(=O)O [amdinocillin] | undergo extensive paracellular transport | 
N[C@@H]1[C@H]2CN(c3nc4c(cc3F)c(=O)c(C(=O)O)cn4-c3ccc(F)cc3F)C[C@@H]12 [trovafloxacin] | undergo extensive paracellular transport | 
Fc1ccc(C(c2ccc(F)cc2)N2CCN(C/C=C/c3ccccc3)CC2)cc1 [flunarizine] |  | potent hERG channel blockers
